In US12415803B2, “Fused imidazopyridines as reversible inhibitors of Brutons Tyrosine Kinase (BTK)” (Merck Patent GmbH, priority 2018, dated 2025):

Experiments:
full-length human BTK = full-length human BTK (Homo sapiens (Human), UniProt Q06187); test: BTK IC50 Enzyme Assay (microfluidic off-chip mobility shift kinase assay); type: biochemical; conditions: Btk Enzymatic IC50 Assay, 90 min at 27 C;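 also: Read-out separates phosphorylated peptide product from substrate by their charge-to-mass difference, with IC50 fitted from log inhibitor concentration against percent enzyme activity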
full-length human BTK, sequence (Q06187 whole entry): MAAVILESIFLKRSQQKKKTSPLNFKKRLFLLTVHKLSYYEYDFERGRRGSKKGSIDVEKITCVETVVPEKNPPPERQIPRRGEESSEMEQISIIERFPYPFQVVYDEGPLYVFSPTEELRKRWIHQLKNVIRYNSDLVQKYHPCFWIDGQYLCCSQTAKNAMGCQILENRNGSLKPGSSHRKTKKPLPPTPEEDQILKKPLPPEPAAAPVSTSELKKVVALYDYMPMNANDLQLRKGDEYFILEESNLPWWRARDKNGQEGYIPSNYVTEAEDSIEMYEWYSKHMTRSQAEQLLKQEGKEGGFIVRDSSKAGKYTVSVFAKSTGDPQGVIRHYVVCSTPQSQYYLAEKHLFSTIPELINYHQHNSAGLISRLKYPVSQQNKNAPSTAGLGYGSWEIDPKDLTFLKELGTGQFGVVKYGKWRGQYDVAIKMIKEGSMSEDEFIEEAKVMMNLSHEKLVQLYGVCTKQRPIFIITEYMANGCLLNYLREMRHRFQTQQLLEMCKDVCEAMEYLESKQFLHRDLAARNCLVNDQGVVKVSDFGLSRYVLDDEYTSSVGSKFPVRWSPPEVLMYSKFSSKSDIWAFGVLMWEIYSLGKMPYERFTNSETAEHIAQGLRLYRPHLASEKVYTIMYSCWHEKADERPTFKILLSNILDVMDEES

Btk = Btk (Homo sapiens (Human), UniProt Q06187); test: Btk PBMC IC50 Cell Assay (anti-IgM-induced CD69 expression on B cells); type: cell-based; conditions: anti-IgM-induced CD69 expression on CD19 positive cells in human PBMCs;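 also: freshly isolated human PBMCs, IC50 from concentration-response of the share of CD19+ cells expressing CD69 after anti-IgM BCR stimulation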
Btk, sequence (Q06187 whole entry): as above

Row | IC50 (full-length human BTK) | IC50 (Btk) | Structure (SMILES)
1 | 1 to 10 nM | 10 to 100 nM | Cn1cc(-c2nc3c(-c4ccc5c(c4)OCCC[C@H]5NC(=O)c4nc(C(C)(C)C)no4)ccnc3[nH]2)cn1 [Compound 44, 3-tert-Butyl-[1,2,4]oxadiazole-5-carboxylic acid {(R)-8-[2-(1-methyl-1H-pyrazol-4-yl)-3H-imidazo[4,5-b]pyridin-7-yl]-2,3,4,5-tetrahydro-benzo[b]oxepin-5-yl}-amide]
2 | < 1 nM | 1 to 10 nM | Cn1cc(-c2nc3c(-c4ccc5c(c4)OCCCC5NC(=O)c4nc(C(C)(C)C)no4)ccnc3[nH]2)cn1 (centres unmarked) [Compound 38, 3-tert-Butyl-[1,2,4]oxadiazole-5-carboxylic acid {8-[2-(1-methyl-1H-pyrazol-4-yl)-3H-imidazo[4,5-b]pyridin-7-yl]-2,3,4,5-tetrahydro-benzo[b]oxepin-5-yl}-amide]
3 | < 1 nM | 1 to 10 nM | Cn1cc(-c2nc3c(-c4ccc5c(c4)OCCC[C@H]5NC(=O)c4noc(C(C)(C)C)n4)ccnc3[nH]2)cn1 [Compound 46, 5-tert-Butyl-[1,2,4]oxadiazole-3-carboxylic acid {(R)-8-[2-(1-methyl-1H-pyrazol-4-yl)-3H-imidazo[4,5-b]pyridin-7-yl]-2,3,4,5-tetrahydro-benzo[b]oxepin-5-yl}-amide]
4 | < 1 nM | 1 to 10 nM | Cc1nn(C)c(C)c1-c1nc2c(-c3ccc4c(c3)CCCCC4NC(=O)c3nc(C(C)(C)C)no3)ccnc2[nH]1 (centres unmarked) [Compound 6, 3-tert-butyl-N-[2-[2-(trimethyl-1H-pyrazol-4-yl)-3H-imidazo[4,5-b]pyridin-7-yl]-6,7,8,9-tetrahydro-5H-benzo[7]annulen-5-yl]-1,2,4-oxadiazole-5-carboxamide]
5 | 1 to 10 nM | > 100 nM | Cc1nn(C(C)C)c(C)c1-c1nc2c(-c3ccc4c(c3)CCCC[C@@H]4NC(=O)c3nc(C4(C)CC4)no3)ccnc2[nH]1 [Compound 36, 3-(1-Methyl-cyclopropyl)-[1,2,4]oxadiazole-5-carboxylic acid {(S)-2-[2-(1-isopropyl-3,5-dimethyl-1H-pyrazol-4-yl)-3H-imidazo[4,5-b]pyridin-7-yl]-6,7,8,9-tetrahydro-5H-benzocyclohepten-5-yl}-amide]
6 | 1 to 10 nM | 10 to 100 nM | Cc1nn(C(C)C)cc1-c1nc2c(-c3ccc4c(c3)CCCCC4NC(=O)c3nc(C(C)(C)C)no3)ccnc2[nH]1 (stereo in doubt) [Compound 64, 3-tert-Butyl-[1,2,4]oxadiazole-5-carboxylic acid {(R)-2-[2-(1-isopropyl-3-methyl-1H-pyrazol-4-yl)-3H-imidazo[4,5-b]pyridin-7-yl]-6,7,8,9-tetrahydro-5H-benzocyclohepten-5-yl}-amide]
7 | < 1 nM | 1 to 10 nM | Cc1nn(C(C)C)c(C)c1-c1nc2c(-c3ccc4c(c3)CCCCC4NC(=O)c3nc(C4(C)CC4)no3)ccnc2[nH]1 (centres unmarked) [Compound 35, 3-(1-Methyl-cyclopropyl)-[1,2,4]oxadiazole-5-carboxylic acid {2-[2-(1-isopropyl-3,5-dimethyl-1H-pyrazol-4-yl)-3H-imidazo[4,5-b]pyridin-7-yl]-6,7,8,9-tetrahydro-5H-benzocyclohepten-5-yl}-amide]
8 | < 1 nM | 1 to 10 nM | Cc1nn(C(C)C)cc1-c1nc2c(-c3ccc4c(c3)CCCC[C@H]4NC(=O)c3nc(C4(C)CC4)no3)ccnc2[nH]1 [Compound 59, 3-(1-Methyl-cyclopropyl)-[1,2,4]oxadiazole-5-carboxylic acid {(R)-2-[2-(1-isopropyl-3-methyl-1H-pyrazol-4-yl)-3H-imidazo[4,5-b]pyridin-7-yl]-6,7,8,9-tetrahydro-5H-benzocyclohepten-5-yl}-amide]
9 | < 1 nM | 1 to 10 nM | Cc1nn(C(C)C)cc1-c1nc2c(-c3ccc4c(c3)CCCC[C@H]4NC(=O)c3noc(C(C)(C)C)n3)ccnc2[nH]1 [Compound 61, 5-tert-Butyl-[1,2,4]oxadiazole-3-carboxylic acid {(R)-2-[2-(1-isopropyl-3-methyl-1H-pyrazol-4-yl)-3H-imidazo[4,5-b]pyridin-7-yl]-6,7,8,9-tetrahydro-5H-benzocyclohepten-5-yl}-amide]
10 | 1 to 10 nM | 10 to 100 nM | Cn1cc(-c2nc3c(-c4ccc5c(c4)CCCC[C@@H]5NC(=O)c4noc(C(C)(C)C)n4)ccnc3[nH]2)cn1 [Compound 53, 5-tert-Butyl-[1,2,4]oxadiazole-3-carboxylic acid {(S)-2-[2-(1-methyl-1H-pyrazol-4-yl)-3H-imidazo[4,5-b]pyridin-7-yl]-6,7,8,9-tetrahydro-5H-benzocyclohepten-5-yl}-amid]
11 | 1 to 10 nM | 1 to 10 nM | Cc1c(-c2nc3c(-c4ccc5c(c4)CCCC5NC(=O)c4nc(C5(C)CC5)no4)ccnc3[nH]2)cnn1C(C)C (centres unmarked) [Compound 146, 3-(1-Methyl-cyclopropyl)-[1,2,4]oxadiazole-5-carboxylic acid {6-[2-(1-isopropyl-5-methyl-1H-pyrazol-4-yl)-3H-imidazo[4,5-b]pyridin-7-yl]-1,2,3,4-tetrahydro-naphthalen-1-yl}-amide]
12 | 1 to 10 nM | 10 to 100 nM | Cc1c(-c2nc3c(-c4ccc5c(c4)CCC[C@H]5NC(=O)c4nc(C5(C)CC5)no4)ccnc3[nH]2)cnn1C1CCOCC1 [Compound 154, 3-(1-Methyl-cyclopropyl)-[1,2,4]oxadiazole-5-carboxylic acid ((R)-6-{2-[5-methyl-1-(tetrahydro-pyran-4-yl)-1H-pyrazol-4-yl]-3H-imidazo[4,5-b]pyridin-7-yl}-1,2,3,4-tetrahydro-naphthalen-1-yl)-amide]
13 | 1 to 10 nM | 10 to 100 nM | Cc1nn(C(C)C)cc1-c1nc2nccc(-c3ccc4c(c3)CCCC[C@@H]4NC(=O)c3nnc(C(C)(C)C)o3)c2[nH]1 [Compound 77, 5-tert-butyl-N-[(5S)-2-{2-[3-methyl-1-(propan-2-yl)-1H-pyrazol-4-yl]-1H-imidazo[4,5-b]pyridin-7-yl}-6,7,8,9-tetrahydro-5H-benzo[7]annulen-5-yl]-1,3,4-oxadiazole-2-carboxamide]
14 | 1 to 10 nM | > 100 nM | Cc1c(-c2nc3c(-c4ccc5c(c4)CCCC[C@H]5NC(=O)c4nc(C(C)(C)C)no4)ccnc3[nH]2)cnn1C(C)C [Compound 161, 3-tert-Butyl-[1,2,4]oxadiazole-5-carboxylic acid {(R)-2-[2-(1-isopropyl-5-methyl-1H-pyrazol-4-yl)-3H-imidazo[4,5-b]pyridin-7-yl]-6,7,8,9-tetrahydro-5H-benzocyclohepten-5-yl}-amide]
15 | < 1 nM | 1 to 10 nM | Cn1cc(-c2nc3c(-c4ccc5c(c4)CCCCC5NC(=O)c4cc(C5(C)CC5)on4)ccnc3[nH]2)cn1 (centres unmarked) [Compound 41, 5-(1-Methyl-cyclopropyl)-isoxazole-3-carboxylic acid {2-[2-(1-methyl-1H-pyrazol-4-yl)-3H-imidazo[4,5-b]pyridin-7-yl]-6,7,8,9-tetrahydro-5H-benzocyclohepten-5-yl}-amide]

Row | Structure (SMILES) | IC50 (full-length human BTK) | IC50 (Btk)
16 | Cc1c(-c2nc3c(-c4ccc5c(c4)CCC[C@@H]5NC(=O)N4CC(OC(C)(C)C)C4)ccnc3[nH]2)cnn1C1CCOCC1 [Compound 159, 3-tert-Butoxy-azetidine-1-carboxylic acid ((S)-6-{2-[5-methyl-1-(tetrahydro-pyran-4-yl)-1H-pyrazol-4-yl]-3H-imidazo[4,5-b]pyridin-7-yl}-1,2,3,4-tetrahydro-naphthalen-1-yl)-amide] | 1 to 10 nM | > 100 nM
